Assay results reported in paper PMC8571031, “Stimulation of Ca^2+‐ATPase Transport Activity by a Small‐Molecule Drug” (Chemmedchem, 2021).

Molecular target: T1, sarco(endo)plasmic reticulum Ca2+-ATPase (SERCA1a isoform) (Oryctolagus cuniculus, UniProt P04191)
T1 construct: gene ATP2A1; purified SERCA1a from rabbit skeletal muscle SR in reconstituted proteoliposomes; native SR vesicles for the EC50
Experiment: SSM electrical measurement of ATP-induced charge translocation (activation); EC50 on native SR vesicles, direct action confirmed with purified SERCA1a proteoliposomes
Type: biochemical

T1 sequence (P04191 1-993): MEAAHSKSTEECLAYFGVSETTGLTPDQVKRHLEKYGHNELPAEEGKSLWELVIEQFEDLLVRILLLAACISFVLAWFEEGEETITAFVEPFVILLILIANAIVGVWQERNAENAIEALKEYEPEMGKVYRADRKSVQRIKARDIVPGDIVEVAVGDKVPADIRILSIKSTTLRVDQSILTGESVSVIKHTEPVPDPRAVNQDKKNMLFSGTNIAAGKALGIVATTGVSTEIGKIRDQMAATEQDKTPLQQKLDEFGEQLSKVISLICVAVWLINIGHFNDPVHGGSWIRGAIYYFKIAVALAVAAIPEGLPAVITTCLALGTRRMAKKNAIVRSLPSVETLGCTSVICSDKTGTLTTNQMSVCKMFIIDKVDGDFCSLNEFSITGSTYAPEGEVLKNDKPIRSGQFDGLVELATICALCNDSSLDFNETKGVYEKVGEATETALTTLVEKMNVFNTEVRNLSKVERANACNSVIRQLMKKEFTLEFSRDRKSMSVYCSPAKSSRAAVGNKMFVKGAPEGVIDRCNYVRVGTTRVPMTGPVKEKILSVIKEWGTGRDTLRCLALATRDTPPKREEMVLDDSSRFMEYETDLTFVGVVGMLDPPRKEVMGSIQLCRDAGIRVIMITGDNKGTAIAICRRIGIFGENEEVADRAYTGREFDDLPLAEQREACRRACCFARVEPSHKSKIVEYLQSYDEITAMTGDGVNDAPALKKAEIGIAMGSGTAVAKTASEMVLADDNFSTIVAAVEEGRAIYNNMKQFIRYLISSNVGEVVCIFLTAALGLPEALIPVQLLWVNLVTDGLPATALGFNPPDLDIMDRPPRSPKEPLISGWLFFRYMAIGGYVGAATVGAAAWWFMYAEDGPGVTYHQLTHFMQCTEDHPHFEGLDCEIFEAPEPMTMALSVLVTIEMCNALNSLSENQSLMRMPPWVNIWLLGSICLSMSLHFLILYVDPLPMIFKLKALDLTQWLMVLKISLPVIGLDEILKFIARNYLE

EC50: 6 ± 0.3 µM
Structure (SMILES): Cc1ccc2cccc(NC(=O)c3ccc(OC(C)C)cc3)c2n1 [CDN1163]
